Patent publication US6342503B1, “1N-alkyl-n-arylpyrimidinamines and derivatives thereof” (DuPont Pharmaceuticals Company, priority 1993, dated 2002)

Assays:
CRF receptor = target: T1, CRF receptor (Rattus norvegicus, UniProt P35353); assay: In vitro CRF receptor binding assay (competition with [125I] ovine CRF, rat cortex membranes); details: read-out: Inhibition Ki
T1 construct: 100 μl of membrane suspension as prepared above to give a total reaction volume of 300 μl; from tissue; host or cells: rat cerebral cortex membrane homogenate
T1 sequence (P35353 24-415): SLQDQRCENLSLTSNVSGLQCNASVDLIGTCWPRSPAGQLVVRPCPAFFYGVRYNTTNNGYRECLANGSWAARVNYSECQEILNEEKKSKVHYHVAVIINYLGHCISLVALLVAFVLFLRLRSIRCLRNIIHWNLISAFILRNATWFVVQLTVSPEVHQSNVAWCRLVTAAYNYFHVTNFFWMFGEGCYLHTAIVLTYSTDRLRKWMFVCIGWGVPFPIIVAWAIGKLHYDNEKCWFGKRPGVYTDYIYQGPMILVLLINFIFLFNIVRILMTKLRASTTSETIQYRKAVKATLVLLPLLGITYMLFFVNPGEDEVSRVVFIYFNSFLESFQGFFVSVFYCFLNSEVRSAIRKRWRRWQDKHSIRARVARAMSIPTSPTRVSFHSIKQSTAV

Compound | melting point [°C] | Ki (CRF receptor) [nM]
CCC(=O)c1ccc(N(CC)c2nc(C)cc(C)n2)c(SC)c1 [compound 188, N-(4-propionyl-2-methylthiophenyl)-N-ethyl-4,6-dimethyl-2-pyrimidinamine] | 139 to 141 | < 500
CCN(c1nc(C)cc(C)n1)c1ccc(C(C)=O)cc1SC [compound 187, N-(4-acetyl-2-methylthiophenyl)-N-ethyl-4,6-dimethyl-2-pyrimidinamine] | 125 to 126 | < 500
Cc1cc(N2CCCC2)nc(N(C)c2ccc(C(C)C)cc2Br)n1 [compound 193] | 119 to 120 | < 500
CCN(c1nc(C)cc(C)n1)c1ccc(OC)cc1SC [compound 185, N-(4-methoxy-2-methylthiophenyl)-N-ethyl-4,6-dimethyl-2-pyrimidinamine] | 128 to 130 | < 500
CCN(c1nc(C)cc(C)n1)c1ccc(C(C)C)cc1SC [compound 168, N-(2-methylthio-4-(1-methylethyl)phenyl)-N-ethyl-4,6-dimethyl-2-pyrimidinamine] | 64 to 66 | < 500
Cc1cc(C)c2c(C#N)cn(-c3ccc(C(C)C)cc3Br)c2n1 [Example 254] | 105.8 | < 500
COc1cc(Br)c(Nc2nc(C)cc(C)n2)c(OC)c1 [compound 203] | 177 to 179 | 501 to 2000
Cc1cc(Cl)c2c(C#N)cn(-c3ccc(C(C)C)cc3Br)c2n1 [Example 255] | 179.2 | 501 to 2000
CCN(c1nc(C)cc(C)n1)c1ccc(NC)cc1SC [compound 190, N-(4-(N-methylamino)-2-methylthiophenyl)-N-ethyl-4,6-dimethyl-2-pyrimidinamine] | 141 to 142 | < 500
CCCCc1ccc(N(CCC)c2nc(C)cc(C)n2)c(Br)c1 [compound 20] | 49 to 50 | < 500
COc1ccc(Nc2nc(C)cc(C)n2)c(Br)c1 [compound 204] | 118 to 119 | 2000 to 10000
C=CCN(c1nc(C)cc(N2CCOCC2)n1)c1ccc(C(C)C)cc1I [compound 165, N-(2-iodo4-(1-methylethyl)phenyl)-N-allyl4-morpholino-6-methyl-2-pyrimidinamine] | 109 to 112 | < 500
CCN(c1nc(C)cc(C(=O)N2CCCCC2)n1)c1ccc(C(C)C)cc1Br [compound 60] | 107 to 108 | 501 to 2000
Cc1cc(N2CCCCC2)nc(N(C)c2ccc(C(C)C)cc2Br)n1 [compound 195] | 186 to 187 | < 500
CCN(c1nc(C)cc(C)n1)c1ccc(C#N)cc1SC [compound 186, N-(4-cyano-2-methylthiophenyl)-N-ethyl-4,6-dimethyl-2-pyrimidinamine] | 99 to 100 | < 500
CCN(c1nc(C)cc(C(=O)N2CCN(c3ccccc3OC)CC2)n1)c1ccc(C(C)C)cc1Br [compound 268] | 57 to 60 | < 500
CCN(c1nc(C)cc(C(=O)NCc2ccco2)n1)c1ccc(C(C)C)cc1Br [compound 270] | 87 to 88 | 2000 to 10000
Cc1cc(N2CCSCC2)nc(Nc2c(Br)cc(C(C)C)cc2Br)n1 [compound 166, N-(2,6-dibromo-4-(1-methylethyl)phenyl)4-thiomorpholino-6-methyl-2-pyrimidinamine] | 194 to 195 | < 500
CCN(c1nc(C)cc(C)n1)c1ccc(N(C)C(C)=O)cc1SC [compound 183, N-(2-methylthio-4-(N-acetyl-N-methylamino)phenyl)-N-ethyl-4,6-dimethyl-2-pyrimidinamine] | 158 to 160 | 2000 to 10000
CCN(c1nc(C)cc(C(=O)c2cccnc2)n1)c1ccc(C(C)C)cc1Br [compound 284] | 165 to 167 | < 500
CCN(c1nc(C)nc(C(C#N)c2ccccc2)n1)c1c(Br)cc(OC)cc1OC (stereo not shown) [compound 247] | 50 to 52 | < 500
CCN(c1nc(C)cc(C)n1)c1ccc(CCO)cc1Br [compound 64, N-(2-Bromo-4-(2-hydroxyethyl)phenyl)-N-ethyl-4,6-dimethyl-2-pyrimidinamine] | 58 to 60 | 2000 to 10000
COc1cc(Cl)c(Nc2nc(C)cc(C)n2)c(OC)c1 [compound 145] | 170 to 173 | 2000 to 10000
